Consider two compounds from patent US7709010B2, “Papillomavirus vaccine compositions” (Merck Sharp & Dohme Corp., priority 2007, dated 2010).

The test system of series [1] is microorganisms (e.g., bacteria and fungi). The experiment in a line: Anti-microbial effectiveness (AME) test (USP, EP-B, EP-A criteria). It is filed as cell-based. The following applies: initial screening, octavalent HPV formulation with MAA, stored one week at 2-8° C. before test.
Procedure: The effectiveness of various preservatives in candidate HPV vaccine formulations was evaluated using an antimicrobial test (anti-microbial effectiveness (AME) test). AME testing was used to determine the ability of a preservative to reduce or eliminate microbes that may be introduced into the vial following product withdrawal. […] Briefly, the AME test comprises the EPA, EPB and USP criteria, which consist of inoculating 10^5-10^6 CFU/mL microorganisms (e.g., bacteria and fungi) per container at time zero, and evaluating the log reduction over time (Meyer et al., supra).
Thimerosal was also included as a reference.
All samples contained 562.5 mcg/mL MAA, 0.32 M NaCl, 10 mM His, 0.01% polysorbate-80 (PS-80), pH 6.2. Formulations containing chlorobutanol and propylparaben were tested with and without the addition of 120 mcg/mL ISCOMATRIX®.
Preservatives were added to octavalent HPV formulations comprising 8 types of HPV VLPs, as described in EXAMPLE 1, and were stored for one week at 2-8° C. prior to AME testing.
Several HPV vaccine formulations with various dose and combinations of preservatives, in the presence or absence of IMX adjuvant, were tested.
Each type of HPV VLP aqueous bulk was absorbed on MAA separately with a protein-to-adjuvant ratio of 0.71 to form the monovalent vaccines in 0.32 M NaCl, 10 mM Histidine (pH 6.2), 0.01% (w/v) PS-80. […]
Another series addresses HPV18 VLPs (Human papillomavirus type 18, UniProt P06794). It is filed as physicochemical, HPV. Conditions: data not shown. On the procedure:
Differential Scanning Calorimetry (DSC) was used to evaluate the impact of preservatives on protein structural and thermal stability. The analysis for antigen thermal stability was determined using a VP-Capillary DSC Platform (MicroCal, LLC, Northampton, Mass.). A detailed description of the conditions utilized is disclosed in Ionescu et al. (2007) (J. Pharm. Sci. 97(4): 1414-1426 (2008)).
The DSC evaluation was carried out in the presence of various preservatives with varied concentrations.

A further series has as its target HPV Type 18 VLPs (Human papillomavirus type 18, UniProt P06794). It is filed as binding. Conditions: HPV18 VLPs, 2 months at 2-8° C., n=2, Biacore. On the technique in general: In SPR one partner is held on a chip, and binding of the other changes the refractive index at the surface.

HPV18 VLPs, sequence (P06794 whole entry): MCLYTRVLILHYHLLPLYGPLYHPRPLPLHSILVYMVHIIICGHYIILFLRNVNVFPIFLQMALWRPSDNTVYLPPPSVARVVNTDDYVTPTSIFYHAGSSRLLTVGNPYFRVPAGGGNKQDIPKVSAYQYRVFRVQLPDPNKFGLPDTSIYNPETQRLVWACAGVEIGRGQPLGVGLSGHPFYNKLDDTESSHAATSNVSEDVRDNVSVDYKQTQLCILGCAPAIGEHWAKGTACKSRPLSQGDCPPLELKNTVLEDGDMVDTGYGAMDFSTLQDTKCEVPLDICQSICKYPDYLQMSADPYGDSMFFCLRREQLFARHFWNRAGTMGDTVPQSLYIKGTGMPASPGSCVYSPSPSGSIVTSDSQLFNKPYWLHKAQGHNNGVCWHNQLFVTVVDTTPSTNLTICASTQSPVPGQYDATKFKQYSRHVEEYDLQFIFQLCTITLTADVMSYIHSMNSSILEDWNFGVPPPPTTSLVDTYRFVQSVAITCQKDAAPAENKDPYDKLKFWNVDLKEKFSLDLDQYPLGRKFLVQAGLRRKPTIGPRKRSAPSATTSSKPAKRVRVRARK
HPV Type 18 VLPs, sequence (P06794 whole entry): as above
Procedure for HPV Type 18 VLPs: The in vitro antigenicity of HPV vaccine formulations comprising HPV18 VLPs and different preservatives was evaluated using a neutralization antibody binding assay (Biacore, Surface Plasmon Resonance). The analysis for antigen bioactivity was determined using the Biacore 2000 (VPR 332) and Biacore 3000 (VPR 696) (Biacore, Inc., Piscataway, N.J.).
Samples were incubated for 2 months at 2-8° C. prior to sample treatment by aluminum dissolution, followed by the final Biacore analysis.

On to `OCCOc1ccccc1` [2-phenoxyethanol], for which the “AME test criteria passed (USP, EP-B, EP-A)” value in series [1] is listed as “did not pass EP-B or EP-A”. Take `C[CH2][Hg][S]c1ccccc1C(=O)[O-].[Na+]` [thimerosal]: at HPV18 VLPs, the “impact on the thermal stability of HPV type 18 (DSC)” value is on record as “greatest impact”. The “average relative in vitro antigenicity” value on HPV Type 18 VLPs was 80%.
